US12048686B2, “Compositions and methods for activating NRF2-dependent gene expression” (The University of Chicago, priority 2018, dated 2024)
“Also recorded” adds a separate entry of the source.

Columns and labels:
[1] = LPS acute lung injury mouse model; type: in vivo; settings: 50 mg/kg intraperitoneally
Description: FIG. 23. Mice treated with CBR-470-2 or vehicle (NaOH) IP and intratracheally instill LPS to induce acute lung injury.
Systemic CBR-470-2 treatment in acute lung injury mouse model reduces bronchial alveolar lavage (immune cells) cell TNF, IL1b and IL6 production (FIG. 23). C57/B6 Mice were treated with either CBR-470-2 (50 mg/kg dissolved in water and NaOH (1:1)) or vehicle (NaOH) intraperitoneally, and intratracheally instill 0.7 mg/kg of lipopolysaccharide (LPS) to induce […].

UVB skin damage model = settings: mouse
Description: UVB Skin Damage Model. 32 5-week old Balb/c male mice were randomized into 4 groups of 8 animals such that each group had similar body weight means. Mice were prepared for removal of hair from their entire back two days prior to UVB exposure (day 3) by using an electric shaver and depilatory cream. On day 5, mice received exposure to UVB (200 mJ/cm^2) produced by a broad band UVB lamp (Dermapal UVB Rev 2) powered by a Kernel UV Phototherapy system. UVB exposure was confined to a rectangular area of ˜8 cm^2 by a lead shielding mask. UVB doses were confirmed by dosimeter measurements (Daavlin X96). Sham animals were shaved but received no UVB treatment. Mice were dosed from day 0 to study end at day 10 via oral gavage twice daily (CBR-470-2, 50 mg/kg BID PO; BARD, 3 mg/kg PO; Vehicle, 0.5% methyl cellulose/0.5% Tween80). Mice were monitored daily for body weight changes and erythema scoring from days 5 to 10. […] Blinded erythema scores were recorded by a blinded, trained investigator according to established in house scale. […]
Percent wounded area measurements. […] Red content corresponding to wounds was then quantified as a fraction of the whole imaging field and reported as percent wounded area.
Epidermal thickness measurements. […] 24 individual measurements of epidermal thickness from 8 sections spanning a 400 μm step distance were recorded per animal by a non-blinded, trained investigator. […]

IMR32 cells = experiment: IMR32 viability with co-treatments (cell titer glo); type: cell-based
Description: FIG. 38. PGK1 toxicity can be rescued with metabolites that are involved with GSH biosynthesis and quenching of reactive oxygen species and methylglyoxal. […] IMR32 cells treated for 48 hr in presence of indicated drugs.
PGK1 toxicity can be rescued with metabolites that are involved with GSH biosynthesis and quenching of reactive oxygen species and methylglyoxal.
IMR32 cells were treated for 48 hrs with CBR-470-1 and/or BBGC at combinations of doses in a synergy matrix (FIG. 41). […] Viability measured using cell titer glo assay (Promega). Viability decreased at higher concentrations of CBR-470-1 and BBGC start at 5 uM. […] Sensitivity of cell lines to direct inhibition of GLO1 (which detoxifies MGO) is generally correlated with sensitivity to PGK1 inhibition with CBR-470-1-consistent with MGO buildup playing a role in toxicity.

O=C(O)CN[C@H]1CS(=O)(=O)C[C@@H]1S(=O)(=O)c1ccc(Cl)c(Cl)c1 [CBR-470-2]
IL6 gene expression, lung tissue ([1]; LPS): decreased gene expression of IL6 | IL1b production, BAL cells ([1]; LPS 0.7 mg/kg intratracheally): decreased TNF, IL6, and IL1b production | IL6 production, BAL cells ([1]; LPS 0.7 mg/kg intratracheally): decreased TNF, IL6, and IL1b production; also recorded: decreased IL-6, and mRNA expression in immune cells (BAL cells) | TNF production, BAL cells ([1]; LPS 0.7 mg/kg intratracheally): decreased TNF, IL6, and IL1b production | NRF2 signaling in vivo (pharmacodynamic and efficacy data) (UVB skin damage model): capable of modulating NRF2 signaling in vivo

CN(C)C(=N)N=C(N)N [metformin]
effect of co-treatment on viability effects of PGK1 inhibition (IMR32 cells; across cell lines, on average, IMR32 48 hr): do not strongly affect viability effects of PGK1 inhibition; also recorded: do not strongly effect viability effect of PGK1 inhibition

CC1(C)CC(O)CC(C)(C)N1[O] [Tempol]
effect of co-treatment with ROS scavenger on anti-proliferative effects of CBR-470-1 (IMR32 cells; co-treatment with CBR-470-1): does not effectively reduce anti-proliferative effects of CBR-470-1
